Columns and labels:
rat pancreatic islets [1] = experiment: Epinephrine-induced glucagon secretion in rat pancreatic islets; type: cell-based; conditions: epinephrine 5 μM; at 30 μM
rat pancreatic islets [2] = experiment: Glucagon secretion in rat pancreatic islets under low glucose (3 mM), ELISA; type: cell-based; conditions: 3 mM glucose
hNaV1.3 = biological target: T1, hNaV1.3 (Homo sapiens, UniProt Q9NY46); experiment: Voltage-dependent block (VDB) of hNaV1.3, QPatch whole-cell voltage-clamp in HEK-293 cells; type: cell-based; conditions: 8 s prepulse to -55 mV; at a given concentration (not given)
T1 construct: (Vanderbilt University, Nashville, Tenn.)
Experimental: Voltage-dependent block (VDB) of […] was determined by whole-cell voltage-clamp recordings of sodium current using a QPatch 16× automated electrophysiological system in HEK 293 cells overexpressing Nav 1.3 and Nav 1.7 sodium channels, respectively. VDB of peak current was measured using an 8 s conditioning prepulse (to -55 mV for NaV1.3 and to −60 mV for […]) followed by a test pulse (0 mV, 20 ms). Currents are normalized to the peak current recorded in the absence of drug and expressed as percent inhibition. […] Glucagon secretion in the cells was induced by the treatment with veratridine at 30 μM for 1 hour in Krebs-Ringer buffer containing 0.1% BSA. Percent inhibition of glucagon secretion by Na channel blockers was calculated from the reduction of veratridine-induced glucagon secretion in the absence of drug.
(Vanderbilt University, Nashville, Tenn.). The cells were continuously maintained in a humidified, 5% CO2 atmosphere at 37° C. in DMEM high glucose growth medium supplemented with 10% FBS, 2 mM L-glutamine, 100 U/mL penicillin, 100 μg/mL streptomycin, 1 mg/mL G418 and 3 μg/mL puromycin.
Whole-cell voltage-clamp recordings were used to measure the activity of test compounds against hNaV1.3 and hNaV1.7. Sodium currents were recorded at room temperature using a QPatch 16× automated electrophysiological system (Sophion Bioscience, Copenhagen, Denmark). Cells were washed with PBS and then incubated with Detachin for 2 minutes at room temperature. Cells were then resuspended in growth media, pelleted by centrifugation and resuspended in CHO-S-SFM II serum free media supplemented with 100 U/mL penicillin, 100 μg/mL streptomycin and 10 mM HEPES. The cells were allowed to recover for 30 min at room temperature with constant stirring and then loaded into the QPatch cell holder.
The cells were loaded into primed single hole (2 MΩ) large QPlates and the whole-cell configuration was established using the default protocol. Cells were allowed to stabilize for 10 min after establishment of the whole-cell configuration before current was measured. […] All currents are low-pass Bessel filtered at 5 kHz and digitized at 50 kHz.
Specific voltage-clamp protocols assessing voltage-dependent block (VDB, also termed state-dependent block) are used. VDB of peak current was measured following an 8 s conditioning prepulse (to -55 mV for NaV1.3 and to −60 mV for NaV1.7) followed by a test pulse to 0 mV (20 ms). An interpulse (−120 mV, 10 ms) was used to recover non-drug bound channels from fast inactivation. The prepulse potential was determined by the steady-state inactivation curves for NaV1.3 and NaV1.7. […] Multiple applications of drug were used to ensure complete solution exchange and the cells were allowed to stabilize in the drug containing solution for two minutes. Currents were normalized to the peak current recorded in the absence of drug and expressed as percent inhibition.

[3] = test system: STZ-induced diabetic mice; experiment: STZ-induced diabetic mouse, animal model of type 1 diabetes; type: in vivo
Experimental: Streptozotocin (STZ) induces diabetes by selectively destroying the pancreatic β-cells. Five-week old male C57BL/6J mice were injected with STZ (40 mg/kg, i.p., dissolved in cold 0.025 mol/L sodium citrate-buffered solution at pH 4.5, freshly made right before injection) for 5 consecutive days to induce diabetes. Fasting plasma glucose (FPG) levels were determined 2 days after STZ treatment. Diabetic mice were then divided into STZ+vehicle and STZ+ranolazine group (10 mice/group) based on body weight (BW) and blood glucose levels. Age and gender matched non-diabetic mice were used as “normal” controls (n=3). For the following 8 weeks, mice were given either vehicle or ranolazine (20 mg/kg in water, p.o., twice daily). BW and FPG levels were monitored once a week. HbA1c levels were measured using a DCA 2000+ clinical analyzer (Siemens) at 0, 4 and 8 weeks of treatment. At the end of the treatment, pancreases from all groups were collected, fixed in 10% formalin overnight and then embedded in paraffin. HE staining and fluorescent staining were performed to review the islet morphology in all groups.

rat pancreatic islets [4] = experiment: Arginine-induced glucagon secretion in rat pancreatic islets; type: cell-based; conditions: L-arginine 20 mM
[5] = after 8 weeks treatment, fluorescence staining

T1 sequence (Q9NY46 1-1951 isoform Q9NY46-4): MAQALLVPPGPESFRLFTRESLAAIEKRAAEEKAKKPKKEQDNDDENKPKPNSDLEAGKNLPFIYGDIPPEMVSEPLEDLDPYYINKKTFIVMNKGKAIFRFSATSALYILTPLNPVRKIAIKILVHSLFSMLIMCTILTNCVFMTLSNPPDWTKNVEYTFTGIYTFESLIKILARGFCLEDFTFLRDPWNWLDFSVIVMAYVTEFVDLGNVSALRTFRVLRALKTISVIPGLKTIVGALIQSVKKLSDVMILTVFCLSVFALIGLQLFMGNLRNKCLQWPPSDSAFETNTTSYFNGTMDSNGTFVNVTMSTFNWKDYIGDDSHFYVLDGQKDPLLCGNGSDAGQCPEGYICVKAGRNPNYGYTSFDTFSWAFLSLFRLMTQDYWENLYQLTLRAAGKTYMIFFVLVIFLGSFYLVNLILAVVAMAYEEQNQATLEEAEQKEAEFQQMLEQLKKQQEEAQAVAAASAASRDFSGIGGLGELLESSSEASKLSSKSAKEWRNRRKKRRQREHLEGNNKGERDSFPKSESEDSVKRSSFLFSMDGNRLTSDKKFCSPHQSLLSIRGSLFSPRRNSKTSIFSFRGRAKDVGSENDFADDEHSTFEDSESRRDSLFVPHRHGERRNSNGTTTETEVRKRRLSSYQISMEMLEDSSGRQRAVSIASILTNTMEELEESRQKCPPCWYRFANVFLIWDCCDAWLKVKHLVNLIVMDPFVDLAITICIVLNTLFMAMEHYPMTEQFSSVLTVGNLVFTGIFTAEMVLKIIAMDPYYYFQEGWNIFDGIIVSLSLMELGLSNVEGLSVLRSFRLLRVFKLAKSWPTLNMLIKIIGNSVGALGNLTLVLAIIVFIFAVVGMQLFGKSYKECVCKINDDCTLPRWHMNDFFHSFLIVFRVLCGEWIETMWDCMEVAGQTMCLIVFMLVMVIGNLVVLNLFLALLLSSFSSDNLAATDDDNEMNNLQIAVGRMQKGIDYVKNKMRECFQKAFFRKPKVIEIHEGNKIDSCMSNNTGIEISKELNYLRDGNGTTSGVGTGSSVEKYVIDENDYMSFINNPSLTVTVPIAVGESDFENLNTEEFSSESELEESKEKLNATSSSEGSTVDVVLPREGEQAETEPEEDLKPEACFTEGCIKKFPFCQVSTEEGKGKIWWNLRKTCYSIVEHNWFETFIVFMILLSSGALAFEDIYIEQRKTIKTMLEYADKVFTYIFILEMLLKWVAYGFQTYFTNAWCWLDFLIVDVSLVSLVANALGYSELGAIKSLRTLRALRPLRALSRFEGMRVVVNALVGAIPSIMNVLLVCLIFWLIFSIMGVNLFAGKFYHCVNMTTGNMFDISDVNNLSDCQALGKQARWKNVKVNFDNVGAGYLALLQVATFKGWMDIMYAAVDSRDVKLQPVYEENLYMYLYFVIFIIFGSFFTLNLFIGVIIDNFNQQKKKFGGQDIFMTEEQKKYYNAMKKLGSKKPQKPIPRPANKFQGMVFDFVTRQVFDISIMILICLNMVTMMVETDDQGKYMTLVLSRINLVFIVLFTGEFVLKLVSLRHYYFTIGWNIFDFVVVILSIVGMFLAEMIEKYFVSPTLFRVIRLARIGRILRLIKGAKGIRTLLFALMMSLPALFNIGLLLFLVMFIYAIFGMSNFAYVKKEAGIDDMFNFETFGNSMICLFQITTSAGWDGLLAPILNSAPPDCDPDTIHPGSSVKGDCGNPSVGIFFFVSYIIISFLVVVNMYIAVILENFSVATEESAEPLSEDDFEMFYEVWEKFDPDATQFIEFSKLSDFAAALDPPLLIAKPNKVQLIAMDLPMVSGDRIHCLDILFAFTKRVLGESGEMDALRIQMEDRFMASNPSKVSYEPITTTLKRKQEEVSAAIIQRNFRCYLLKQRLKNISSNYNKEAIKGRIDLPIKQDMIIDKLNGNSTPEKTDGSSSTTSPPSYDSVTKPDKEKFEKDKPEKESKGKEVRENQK
T1 sequence (Q07699 19-218 partner): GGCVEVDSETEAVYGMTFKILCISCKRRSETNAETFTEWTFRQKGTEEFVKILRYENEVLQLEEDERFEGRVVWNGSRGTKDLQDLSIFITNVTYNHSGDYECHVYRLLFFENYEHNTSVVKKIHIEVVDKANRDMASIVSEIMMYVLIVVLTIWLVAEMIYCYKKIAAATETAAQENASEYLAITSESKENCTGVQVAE
T1 sequence (O60939 30-215 partner): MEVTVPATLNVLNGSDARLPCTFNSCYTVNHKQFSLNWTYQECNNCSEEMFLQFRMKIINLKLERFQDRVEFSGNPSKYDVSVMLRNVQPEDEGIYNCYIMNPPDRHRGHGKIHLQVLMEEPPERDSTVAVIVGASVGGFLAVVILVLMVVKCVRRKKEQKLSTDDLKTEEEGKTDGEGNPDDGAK

| SMILES | reduction of epinephrine-induced increase of glucagon secretion (rat pancreatic islets [1]) [%] | maximal reduction of glucagon secretion as compared to the vehicle control (rat pancreatic islets [2]; at 30 μM) [%] | hNav1.3 VDB % Inhibition (hNaV1.3) [%] | fasting plasma glucose (FPG) ([3]; 20 mg/kg p.o. twice daily, week 4) [mg/dL] | fasting plasma glucose (FPG) ([3]; 20 mg/kg p.o. twice daily, week 6 to week 8) [mg/dL] | HbA1c ([3]; 20 mg/kg p.o. twice daily, week 8) [%] | insulin-positive area per islet [3, 5] [%] | percentage of total islet (insulin and glucagon) area [3, 5] [%] | reduction of L-arginine-induced increase in glucagon secretion (rat pancreatic islets [4]; at 10 μM) [%] | maximal reduction of glucagon secretion as compared to the vehicle control (rat pancreatic islets [2]; at 3 μM) [%] | reduction of L-arginine-induced increase in glucagon secretion (rat pancreatic islets [4]; at 1 μM) [%] |
| --- | --- | --- | --- | --- | --- | --- | --- | --- | --- | --- | --- |
| COc1ccccc1OCC(O)CN1CCN(CC(=O)Nc2c(C)cccc2C)CC1 (racemic) [Ranolazine, ±-N-(2,6-dimethylphenyl)-4-[2-hydroxy-3-(2-methoxyphenoxy)-propyl]-1-piperazineacetamide] | 44±8 | 53±6 | 11.21 | 264 ± 30 | 188 ± 20 | 4.6±0.2 | 69±2.4 | 0.30±0.03 | 31±9 | – | – |
| FC(F)(F)Oc1ccc(-c2ccc3nnc(C(F)(F)F)n3c2)cc1 [Compound A, 6-(4-(trifluoromethoxy)phenyl)-3-(trifluoromethyl)-[1,2,4]triazolo[4,3-α]pyridine] | – | – | 65.42 | – | – | – | – | – | – | 53±8 | 24±6 |

— US20140221286A1, “SODIUM CHANNEL BLOCKERS REDUCE GLUCAGON SECRETION” (Gilead Sciences, Inc., priority 2011, published 2014)
